# ChEMBL document CHEMBL1201862, “PubChem BioAssay data set” (2004)
#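 How tested: cells in 96-well plates exposed to compound for 48 hours at five concentrations. GI50 marks 50% less growth.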 Activity calls are given as the source filed them. Rule as the data show it: active = GI50 up to about 1.1 µM and inactive = higher.
# Columns and labels:
# Experiment in all cases: DTP human tumour cell line panel, 48 h
# [1] = tested on: 786-0
# [2] = tested on: A498
# [3] = tested on: A549
# [4] = tested on: ACHN
# [5] = tested on: CCRF-CEM
# [6] = tested on: COLO 205
# [7] = tested on: DMS-114
# [8] = tested on: DMS-273
# [9] = tested on: EKVX
# [10] = tested on: HCC 2998
# [11] = tested on: HCT-116
# [12] = tested on: HCT-15
# [13] = tested on: HL-60
# [14] = tested on: HOP-18
# [15] = tested on: HOP-62
# [16] = tested on: HOP-92
# [17] = tested on: HT-29
# [18] = tested on: IGROV-1
# [19] = tested on: K562
# [20] = tested on: KM-20L2
# [21] = tested on: KM12
# [22] = tested on: LOX IMVI
# [23] = tested on: M14
# [24] = tested on: M19-MEL
# [25] = tested on: MOLT-4
# [26] = tested on: NCI-H226
# [27] = tested on: NCI-H23
# [28] = tested on: NCI-H460
# [29] = tested on: NCI-H522
# [30] = tested on: OVCAR-3
# [31] = tested on: OVCAR-4
# [32] = tested on: OVCAR-8
# [33] = tested on: RPMI-8226
# [34] = tested on: RXF 393
# [35] = tested on: RXF 631
# [36] = tested on: SF-268
# [37] = tested on: SF-295
# [38] = tested on: SF-539
# [39] = tested on: SK-MEL-28
# [40] = tested on: SK-MEL-2
# [41] = tested on: SK-MEL-5
# [42] = tested on: SK-OV-3
# [43] = tested on: SN12C
# [44] = tested on: SNB-19
# [45] = tested on: SNB-75
# [46] = tested on: SNB-78
# [47] = tested on: SW-620
# [48] = tested on: TK-10
# [49] = tested on: U-251
# [50] = tested on: UACC-257
# [51] = tested on: UACC-62
# [52] = tested on: UO-31
# [53] = tested on: XF498
# [54] = tested on: CAKI-1
# [55] = tested on: DLD-1
# [56] = tested on: LXFL 529
# [57] = tested on: Malme-3M
# [58] = tested on: OVCAR-5
# [59] = tested on: SR
smiles,measurement,setting,value
COc1cc([C@@H]2OC(=O)C3C2C(=O)O[C@H]3c2cc(OC)c(OC)c(OC)c2)cc(OC)c1OC (stereo partly specified),GI50,[1],> 100 µM (inactive)
same,GI50,[2],> 100 µM (inactive)
same,GI50,[3],> 100 µM (inactive)
same,GI50,[4],> 100 µM (inactive)
same,GI50,[5],> 100 µM (inactive)
same,GI50,[6],> 100 µM (inactive)
same,GI50,[7],> 100 µM (inactive)
same,GI50,[8],> 100 µM (inactive)
same,GI50,[9],> 100 µM (inactive)
same,GI50,[10],> 100 µM (inactive)
same,GI50,[11],> 100 µM (inactive)
same,GI50,[12],> 100 µM
same,GI50,[13],> 100 µM (inactive)
same,GI50,[14],> 100 µM (inactive)
same,GI50,[15],> 100 µM (inactive)
same,GI50,[16],> 100 µM (inactive)
same,GI50,[17],> 100 µM (inactive)
same,GI50,[18],> 100 µM (inactive)
same,GI50,[19],> 100 µM (inactive)
same,GI50,[20],> 100 µM (inactive)
same,GI50,[21],> 100 µM (inactive)
same,GI50,[22],> 100 µM (inactive)
same,GI50,[23],> 100 µM (inactive)
same,GI50,[24],> 100 µM (inactive)
same,GI50,[25],> 100 µM (inactive)
same,GI50,[26],38.8 µM (inactive)
same,GI50,[27],> 100 µM (inactive)
same,GI50,[28],> 100 µM (inactive)
same,GI50,[29],> 100 µM (inactive)
same,GI50,[30],> 100 µM (inactive)
same,GI50,[31],> 100 µM (inactive)
same,GI50,[32],> 100 µM (inactive)
same,GI50,[33],> 100 µM (inactive)
same,GI50,[34],> 100 µM (inactive)
same,GI50,[35],> 100 µM (inactive)
same,GI50,[36],> 100 µM (inactive)
same,GI50,[37],> 100 µM (inactive)
same,GI50,[38],> 100 µM (inactive)
same,GI50,[39],> 100 µM (inactive)
same,GI50,[40],> 100 µM (inactive)
same,GI50,[41],> 100 µM (inactive)
same,GI50,[42],> 100 µM (inactive)
same,GI50,[43],> 100 µM (inactive)
same,GI50,[44],> 100 µM (inactive)
same,GI50,[45],> 100 µM (inactive)
same,GI50,[46],> 100 µM (inactive)
same,GI50,[47],> 100 µM (inactive)
same,GI50,[48],> 100 µM (inactive)
same,GI50,[49],> 100 µM (inactive)
same,GI50,[50],> 100 µM (inactive)
same,GI50,[51],> 100 µM (inactive)
same,GI50,[52],> 100 µM (inactive)
same,GI50,[53],6.08 µM (inactive)
O=C(CCn1[nH]c(=O)c(Cl)c(Cl)c1=O)NOCCCc1ccccc1,GI50,[1],> 100 µM (inactive)
same,GI50,[2],> 100 µM (inactive)
same,GI50,[3],> 100 µM (inactive)
same,GI50,[4],> 100 µM (inactive)
same,GI50,[54],> 100 µM (inactive)
same,GI50,[5],> 100 µM (inactive)
same,GI50,[55],> 100 µM (inactive)
same,GI50,[8],> 100 µM (inactive)
same,GI50,[9],> 100 µM (inactive)
same,GI50,[10],> 100 µM (inactive)
same,GI50,[11],> 100 µM (inactive)
same,GI50,[12],> 100 µM
same,GI50,[13],> 100 µM (inactive)
same,GI50,[14],> 100 µM (inactive)
same,GI50,[15],> 100 µM (inactive)
same,GI50,[16],> 100 µM (inactive)
same,GI50,[17],> 100 µM (inactive)
same,GI50,[18],> 100 µM (inactive)
same,GI50,[19],> 100 µM (inactive)
same,GI50,[20],> 100 µM (inactive)
same,GI50,[21],> 100 µM (inactive)
same,GI50,[22],> 100 µM (inactive)
same,GI50,[56],> 100 µM (inactive)
same,GI50,[23],> 100 µM (inactive)
same,GI50,[24],> 100 µM (inactive)
same,GI50,[25],> 100 µM (inactive)
same,GI50,[57],> 100 µM (inactive)
same,GI50,[26],> 100 µM (inactive)
same,GI50,[27],> 100 µM (inactive)
same,GI50,[28],> 100 µM (inactive)
same,GI50,[30],> 100 µM (inactive)
same,GI50,[31],> 100 µM (inactive)
same,GI50,[58],> 100 µM (inactive)
same,GI50,[32],> 100 µM (inactive)
same,GI50,[33],> 100 µM (inactive)
same,GI50,[35],> 100 µM (inactive)
same,GI50,[36],> 100 µM (inactive)
same,GI50,[37],> 100 µM (inactive)
same,GI50,[38],> 100 µM (inactive)
same,GI50,[39],> 100 µM (inactive)
same,GI50,[40],> 100 µM (inactive)
same,GI50,[41],> 100 µM (inactive)
same,GI50,[43],> 100 µM (inactive)
same,GI50,[44],> 100 µM (inactive)
same,GI50,[45],> 100 µM (inactive)
same,GI50,[46],> 100 µM (inactive)
same,GI50,[59],> 100 µM (inactive)
same,GI50,[47],> 100 µM (inactive)
same,GI50,[48],> 100 µM (inactive)
same,GI50,[50],> 100 µM (inactive)
same,GI50,[51],> 100 µM (inactive)
same,GI50,[52],> 100 µM (inactive)
same,GI50,[53],> 100 µM (inactive)
